Measured values as given in patent US10350271B2, “Lipidated peptides for lowering blood glucose” (USTAV ORGANICKE CHEMIE A BIOCHEMIE AKADEMIE VED CR, V.V.I., priority 2014, dated 2019).
Square brackets hold non-standard residues; d marks the D form. Peptide text beside a SMILES is read from it. * marks the point of attachment. Phe(3,4-Cl2) = N[C@@H](Cc1ccc(Cl)c(Cl)c1)C(=O)O; 1Nal = N[C@@H](Cc1cccc2ccccc12)C(=O)O; Palmitoyl = CCCCCCCCCCCCCCCC(=O)*; Myristoyl = CCCCCCCCCCCCCC(=O)*; Lauroyl = CCCCCCCCCCCC(=O)*; Decanoyl = CCCCCCCCCC(=O)*; Nle = CCCC[C@H](N)C(=O)O

Assays:
rat PrRP receptor = molecular target: T1, rat PrRP receptor (Rattus norvegicus, UniProt Q64121); experiment: Competitive binding in RC-4B/C rat pituitary cells (125I-rat PrRP31); conditions: for % of PrRP31, RC-4B/C rat pituitary cells: affinity relative to PrRP31; for Displacement of rat 125I-PrRP binding / Ki: RC-4B/C cells; for Displacement of rat 125I-PrRP binding: rat PrRP receptor; for Ki: displacement of 125I-rat PrRP31, read-out: Ki, RC-4B/C rat pituitary cells ^25I-rat PrRP31
T1 construct: host or cells: RC-4B/C rat pituitary cell line
T1 sequence (Q64121 1-370): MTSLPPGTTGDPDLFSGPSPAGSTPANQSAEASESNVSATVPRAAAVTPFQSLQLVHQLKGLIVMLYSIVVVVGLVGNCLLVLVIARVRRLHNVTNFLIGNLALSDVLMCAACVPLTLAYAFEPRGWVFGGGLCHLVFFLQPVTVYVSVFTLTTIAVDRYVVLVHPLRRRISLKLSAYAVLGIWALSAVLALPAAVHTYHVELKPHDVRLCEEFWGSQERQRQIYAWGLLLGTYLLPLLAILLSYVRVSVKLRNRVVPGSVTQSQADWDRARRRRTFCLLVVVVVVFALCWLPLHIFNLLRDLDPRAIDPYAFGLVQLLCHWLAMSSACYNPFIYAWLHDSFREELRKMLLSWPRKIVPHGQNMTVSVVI
Outline: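 Intact rat pituitary RC-4B/C cells incubated 60 min at room temperature with […] rat 125I-PrRP31 and unlabeled analog (10^−11 to 10^−4 mol·l^−1) in HEPES pH 7.4 buffer. Cell-bound radioactivity γ-counted after NaOH lysis; one-site competition fit.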

C57BL/6 mice = experiment: Food intake in fasted mice after SC injection; assay type: in vivo; conditions: 5 mg/kg SC, 45 min after injection
Experimental: NMRI mice, C57BL/6 mice, and Wistar rats (AnLab, Prague, Czech Republic) were housed in a temperature of 23° C. and a daily cycle of 12 h light and dark (light from 6:00). They were given ad libitum water and a standard chow diet that contained 25, 9 and 66% of calories of protein, fat and carbohydrate respectively. Energy content of the feed was 3.4 kcal/g (St-1, Mlýn Kocanda, Czech Republic). Db/db mice and their controls (C57BL/6 background) were obtained from Taconic (Denmark), housed under the same conditions as described above, and fed by Altromin (Taconic, Denmark). ZDF-Lepr^fa/Crl, diabetic fa/fa male rats were obtained from Charles River (France), housed under same conditions as described above, and fed with a Purina 5008 diet (IPS Product Supplies Limited, UK). All experiments followed the ethical guidelines for animal experiments and the law of the Czech Republic Nr. 246/1992.
In experiments with C57BL/6 mice or Wistar rats, food intake was measured with overnight fasted animals in individual cages. Food was withdrawn 17 hours prior to injection of lipidated analog of prolactin releasing peptide (PrRP); free access to water was maintained. The administration of either saline, PrRP, or lipidated analogs was performed by SC injection at doses of 1-10 mg/kg (which corresponded to a volume of 0.2 ml/mouse and 0.1 ml/100 g weight of rat). Fifteen minutes after the lipidated analog of prolactin releasing peptide (PrRP) administration, the mice were given pre-weighed food. The food was then weighed every 30 minutes for 5-10 hours. The administration of each dose was performed at least twice, and each group of mice consisted of at least 6 mice.

[1] = molecular target: T2, human PrRP receptor GPR10 (Homo sapiens, UniProt P49683); experiment: Competitive binding in CHO cells transfected with human GPR10 (human 125I-PrRP31); conditions: for % of PrRP31, GPR10 human receptor transfected in CHO cells: affinity relative to PrRP31; for Displacement of human 125I-PrRP binding: human GPR10 receptor; for Ki: CHO cells, human 125I-PrRP31, read-out: Ki, GPR10 human receptor transfected in CHO cells
T2 construct: host or cells: CHO cells
T2 sequence (P49683 1-370): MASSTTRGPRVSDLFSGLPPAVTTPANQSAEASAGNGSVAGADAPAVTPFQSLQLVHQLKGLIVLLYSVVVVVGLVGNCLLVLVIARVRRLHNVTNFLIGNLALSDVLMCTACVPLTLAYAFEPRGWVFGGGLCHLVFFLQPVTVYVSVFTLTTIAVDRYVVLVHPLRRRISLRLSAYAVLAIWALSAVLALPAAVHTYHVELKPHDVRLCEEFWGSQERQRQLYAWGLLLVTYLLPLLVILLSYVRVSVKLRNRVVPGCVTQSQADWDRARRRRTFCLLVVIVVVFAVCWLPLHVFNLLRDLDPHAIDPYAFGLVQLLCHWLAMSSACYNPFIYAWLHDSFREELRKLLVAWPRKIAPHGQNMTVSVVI
Outline: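 GPR10-transfected CHO cells (40-80 thousand/well) incubated 60 min at room temperature with 5×10^-11 mol·l^-1 human 125I-PrRP31 and unlabeled analog at 10^-11 to 10^-4 mol·l^-1 in Tris binding buffer pH 7.4. Cells solubilized in 0.1 mol/l NaOH, γ-counted; one-site nonlinear regression fit.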

Compound	% of PrRP31, RC-4B/C rat pituitary cells (rat PrRP receptor) [%]	Food intake in mice % of saline-treated group (C57BL/6 mice) [%]	% of PrRP31, GPR10 human receptor transfected in CHO cells [1] [%]	Displacement of rat 125I-PrRP binding (rat PrRP receptor)	Displacement of human 125I-PrRP binding [1]	Ki (rat PrRP receptor) [nM]	Ki [1] [nM]
CCCCCCCCCC(=O)N[C@@H](CO)C(=O)N[C@@H](CCCNC(=N)N)C(=O)N[C@@H](C)C(=O)N[C@@H](Cc1c[nH]cn1)C(=O)N[C@@H](CCC(N)=O)C(=O)N[C@@H](Cc1c[nH]cn1)C(=O)N[C@@H](CO)C(=O)N[C@@H](CCCC)C(=O)N[C@@H](CCC(=O)O)C(=O)N[C@H](C(=O)N[C@@H](CCCNC(=N)N)C(=O)N[C@H](C(=O)N1CCC[C@H]1C(=O)N[C@@H](CC(=O)O)C(=O)N[C@H](C(=O)N[C@@H](CC(N)=O)C(=O)N1CCC[C@H]1C(=O)N[C@@H](C)C(=O)N[C@@H](Cc1c[nH]c2ccccc12)C(=O)N[C@@H](Cc1ccc(O)cc1)C(=O)N[C@H](C(=O)NCC(=O)N[C@@H](CCCNC(=N)N)C(=O)NCC(=O)N[C@H](C(=O)N[C@@H](CCCNC(=N)N)C(=O)N1CCC[C@H]1C(=O)N[C@H](C(=O)NCC(=O)N[C@@H](CCCNC(=N)N)C(=O)N[C@@H](Cc1ccccc1)C(N)=O)C(C)C)[C@@H](C)CC)[C@@H](C)O)[C@@H](C)CC)[C@@H](C)O)[C@@H](C)O [Analog 5] (Decanoyl-SRAHQHS[Nle]ETRTPDINPAWYTGRGIRPVGRF-NH2)	758	57	266				
CCCCCCCCCCCCCC(=O)N[C@H](C(=O)N1CCC[C@H]1C(=O)N[C@@H](CC(=O)O)C(=O)N[C@H](C(=O)N[C@@H](CC(N)=O)C(=O)N1CCC[C@H]1C(=O)N[C@@H](C)C(=O)N[C@@H](Cc1c[nH]c2ccccc12)C(=O)N[C@@H](Cc1ccc(O)cc1)C(=O)N[C@@H](C)C(=O)N[C@@H](CO)C(=O)N[C@@H](CCCNC(=N)N)C(=O)NCC(=O)N[C@H](C(=O)N[C@@H](CCCNC(=N)N)C(=O)N1CCC[C@H]1C(=O)N[C@H](C(=O)NCC(=O)N[C@@H](CCCNC(=N)N)C(=O)N[C@@H](Cc1ccccc1)C(N)=O)C(C)C)[C@@H](C)CC)[C@@H](C)CC)[C@@H](C)O [Analog 2] (Myristoyl-TPDINPAWYASRGIRPVGRF-NH2)	1027	10	90	nmol·l^−1 range	nmol·l^−1 range		
CCCCCCCCCCCCCC(=O)N[C@@H](CO)C(=O)N[C@@H](CCCNC(=N)N)C(=O)N[C@@H](C)C(=O)N[C@@H](Cc1c[nH]cn1)C(=O)N[C@@H](CCC(N)=O)C(=O)N[C@@H](Cc1c[nH]cn1)C(=O)N[C@@H](CO)C(=O)N[C@@H](CCCC)C(=O)N[C@@H](CCC(=O)O)C(=O)N[C@H](C(=O)N[C@@H](CCCNC(=N)N)C(=O)N[C@H](C(=O)N1CCC[C@H]1C(=O)N[C@@H](CC(=O)O)C(=O)N[C@H](C(=O)N[C@@H](CC(N)=O)C(=O)N1CCC[C@H]1C(=O)N[C@@H](C)C(=O)N[C@@H](Cc1c[nH]c2ccccc12)C(=O)N[C@@H](Cc1ccc(O)cc1)C(=O)N[C@H](C(=O)NCC(=O)N[C@@H](CCCNC(=N)N)C(=O)NCC(=O)N[C@H](C(=O)N[C@@H](CCCNC(=N)N)C(=O)N1CCC[C@H]1C(=O)N[C@H](C(=O)NCC(=O)N[C@@H](CCCNC(=N)N)C(=O)N[C@@H](Cc1ccc(Cl)c(Cl)c1)C(N)=O)C(C)C)[C@@H](C)CC)[C@@H](C)O)[C@@H](C)CC)[C@@H](C)O)[C@@H](C)O [Analog 14] (Myristoyl-SRAHQHS[Nle]ETRTPDINPAWYTGRGIRPVGR[Phe(3,4-Cl2)]-NH2)	275	13	409			1.79 ± 1.02	0.95 ± 0.33
CCCCCCCCCCCCCCCC(=O)N[C@@H](CO)C(=O)N[C@@H](CCCNC(=N)N)C(=O)N[C@@H](C)C(=O)N[C@@H](Cc1c[nH]cn1)C(=O)N[C@@H](CCC(N)=O)C(=O)N[C@@H](Cc1c[nH]cn1)C(=O)N[C@@H](CO)C(=O)N[C@@H](CCCC)C(=O)N[C@@H](CCC(=O)O)C(=O)N[C@H](C(=O)N[C@@H](CCCNC(=N)N)C(=O)N[C@H](C(=O)N1CCC[C@H]1C(=O)N[C@@H](CC(=O)O)C(=O)N[C@H](C(=O)N[C@@H](CC(N)=O)C(=O)N1CCC[C@H]1C(=O)N[C@@H](C)C(=O)N[C@@H](Cc1c[nH]c2ccccc12)C(=O)N[C@@H](Cc1ccc(O)cc1)C(=O)N[C@H](C(=O)NCC(=O)N[C@@H](CCCNC(=N)N)C(=O)NCC(=O)N[C@H](C(=O)N[C@@H](CCCNC(=N)N)C(=O)N1CCC[C@H]1C(=O)N[C@H](C(=O)NCC(=O)N[C@@H](CCCNC(=N)N)C(=O)N[C@@H](Cc1cccc2ccccc12)C(N)=O)C(C)C)[C@@H](C)CC)[C@@H](C)O)[C@@H](C)CC)[C@@H](C)O)[C@@H](C)O [Analog 12] (Palmitoyl-SRAHQHS[Nle]ETRTPDINPAWYTGRGIRPVGR[1Nal]-NH2)	111	13	91				
CCCCCCCCCCCC(=O)N[C@H](C(=O)N1CCC[C@H]1C(=O)N[C@@H](CC(=O)O)C(=O)N[C@H](C(=O)N[C@@H](CC(N)=O)C(=O)N1CCC[C@H]1C(=O)N[C@@H](C)C(=O)N[C@@H](Cc1c[nH]c2ccccc12)C(=O)N[C@@H](Cc1ccc(O)cc1)C(=O)N[C@@H](C)C(=O)N[C@@H](CO)C(=O)N[C@@H](CCCNC(=N)N)C(=O)NCC(=O)N[C@H](C(=O)N[C@@H](CCCNC(=N)N)C(=O)N1CCC[C@H]1C(=O)N[C@H](C(=O)NCC(=O)N[C@@H](CCCNC(=N)N)C(=O)N[C@@H](Cc1ccccc1)C(N)=O)C(C)C)[C@@H](C)CC)[C@@H](C)CC)[C@@H](C)O [Analog 41] (Lauroyl-TPDINPAWYASRGIRPVGRF-NH2)	822	85	161	nmol·l^−1 range	nmol·l^−1 range	0.6 ± 0.22	
CCCCCCCCCCCCCC(=O)N[C@H](C(=O)N1CCC[C@H]1C(=O)N[C@@H](CC(=O)O)C(=O)N[C@H](C(=O)N[C@@H](CC(N)=O)C(=O)N1CCC[C@H]1C(=O)N[C@@H](C)C(=O)N[C@@H](Cc1c[nH]c2ccccc12)C(=O)N[C@@H](Cc1ccc(O)cc1)C(=O)N[C@H](C(=O)NCC(=O)N[C@@H](CCCNC(=N)N)C(=O)NCC(=O)N[C@H](C(=O)N[C@@H](CCCNC(=N)N)C(=O)N1CCC[C@H]1C(=O)N[C@H](C(=O)NCC(=O)N[C@@H](CCCNC(=N)N)C(=O)N[C@@H](Cc1ccccc1)C(N)=O)C(C)C)[C@@H](C)CC)[C@@H](C)O)[C@@H](C)CC)[C@@H](C)O [Analog 1] (Myristoyl-TPDINPAWYTGRGIRPVGRF-NH2)	632	32	133				2.93 ± 0.2
